The experiment addresses purified human, His-tagged PRC2 complex (Homo sapiens (Human), UniProt O75530). Put plainly: Hot Spot HMT assay, inhibition of PRC2 enzymatic activity. Particulars: 10 nM PRC2 complex, 1 μM 3H-SAM, core histone H3, 10-point dose-response. The experiment is classed as biochemical. In a few lines: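 Five-subunit PRC2 complex (EZH2, EED, SUZ12, AEBP2, RbAp48; 10 nM) preincubated 20 min at 30° C with compound (top 1.0 μM) and 0.05 mg/ml core histone H3 in Tris-HCl, 1% DMSO. Started with 1 μM [3H]SAM, 1 hr at 30° C; tritiated H3 measured by filter binding and scintillation.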
Chain of purified human, His-tagged PRC2 complex (O75530 whole entry): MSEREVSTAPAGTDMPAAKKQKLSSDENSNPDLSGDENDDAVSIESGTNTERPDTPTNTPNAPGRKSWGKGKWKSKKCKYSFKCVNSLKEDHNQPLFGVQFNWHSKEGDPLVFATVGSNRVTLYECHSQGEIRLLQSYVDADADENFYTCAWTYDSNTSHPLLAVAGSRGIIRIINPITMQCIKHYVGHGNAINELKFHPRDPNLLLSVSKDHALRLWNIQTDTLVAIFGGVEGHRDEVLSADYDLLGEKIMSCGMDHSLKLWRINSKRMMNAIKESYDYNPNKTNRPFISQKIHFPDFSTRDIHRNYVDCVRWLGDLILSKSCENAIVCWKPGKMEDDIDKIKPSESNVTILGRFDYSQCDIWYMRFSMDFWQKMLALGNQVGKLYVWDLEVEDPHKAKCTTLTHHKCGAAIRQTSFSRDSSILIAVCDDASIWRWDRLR
Chain of purified human, His-tagged PRC2 complex (Q15910 whole entry partner): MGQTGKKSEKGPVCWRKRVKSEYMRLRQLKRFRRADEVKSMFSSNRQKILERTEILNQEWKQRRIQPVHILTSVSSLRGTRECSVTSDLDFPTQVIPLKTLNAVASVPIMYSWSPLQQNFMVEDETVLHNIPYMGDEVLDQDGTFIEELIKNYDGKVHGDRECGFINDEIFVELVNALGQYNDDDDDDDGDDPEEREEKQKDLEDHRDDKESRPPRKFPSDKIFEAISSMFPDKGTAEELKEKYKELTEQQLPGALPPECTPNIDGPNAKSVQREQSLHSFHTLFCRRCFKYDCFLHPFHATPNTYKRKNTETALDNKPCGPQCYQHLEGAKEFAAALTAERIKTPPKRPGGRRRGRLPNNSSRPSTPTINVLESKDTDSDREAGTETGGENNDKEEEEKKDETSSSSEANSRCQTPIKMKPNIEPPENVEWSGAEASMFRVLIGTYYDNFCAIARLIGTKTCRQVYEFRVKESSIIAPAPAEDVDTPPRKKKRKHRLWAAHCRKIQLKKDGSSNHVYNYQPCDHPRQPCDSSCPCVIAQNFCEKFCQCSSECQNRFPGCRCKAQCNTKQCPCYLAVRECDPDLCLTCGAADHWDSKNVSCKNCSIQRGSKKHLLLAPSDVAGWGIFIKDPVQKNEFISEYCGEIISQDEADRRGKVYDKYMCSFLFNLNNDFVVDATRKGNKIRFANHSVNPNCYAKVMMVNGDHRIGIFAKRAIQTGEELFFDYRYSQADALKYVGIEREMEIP
Chain of purified human, His-tagged PRC2 complex (Q15022 whole entry partner): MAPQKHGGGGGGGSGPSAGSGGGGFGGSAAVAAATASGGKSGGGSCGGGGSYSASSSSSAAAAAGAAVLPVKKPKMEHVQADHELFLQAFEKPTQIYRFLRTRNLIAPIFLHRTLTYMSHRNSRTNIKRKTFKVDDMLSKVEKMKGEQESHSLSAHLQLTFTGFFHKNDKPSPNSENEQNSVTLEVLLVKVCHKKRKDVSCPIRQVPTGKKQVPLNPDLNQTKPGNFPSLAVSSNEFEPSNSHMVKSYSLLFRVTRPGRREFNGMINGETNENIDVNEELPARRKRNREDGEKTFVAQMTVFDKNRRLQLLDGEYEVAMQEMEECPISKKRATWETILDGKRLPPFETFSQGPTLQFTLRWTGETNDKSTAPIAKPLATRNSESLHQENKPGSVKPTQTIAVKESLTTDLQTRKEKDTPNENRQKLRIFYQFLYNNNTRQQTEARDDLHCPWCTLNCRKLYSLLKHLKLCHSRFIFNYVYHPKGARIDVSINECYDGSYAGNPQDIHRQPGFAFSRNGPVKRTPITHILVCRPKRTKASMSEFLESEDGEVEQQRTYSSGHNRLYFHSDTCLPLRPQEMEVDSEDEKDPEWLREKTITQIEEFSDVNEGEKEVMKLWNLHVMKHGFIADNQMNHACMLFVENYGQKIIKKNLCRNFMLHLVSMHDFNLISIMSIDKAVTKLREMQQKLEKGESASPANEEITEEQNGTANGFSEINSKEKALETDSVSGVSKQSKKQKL
Chain of purified human, His-tagged PRC2 complex (Q6ZN18 whole entry partner): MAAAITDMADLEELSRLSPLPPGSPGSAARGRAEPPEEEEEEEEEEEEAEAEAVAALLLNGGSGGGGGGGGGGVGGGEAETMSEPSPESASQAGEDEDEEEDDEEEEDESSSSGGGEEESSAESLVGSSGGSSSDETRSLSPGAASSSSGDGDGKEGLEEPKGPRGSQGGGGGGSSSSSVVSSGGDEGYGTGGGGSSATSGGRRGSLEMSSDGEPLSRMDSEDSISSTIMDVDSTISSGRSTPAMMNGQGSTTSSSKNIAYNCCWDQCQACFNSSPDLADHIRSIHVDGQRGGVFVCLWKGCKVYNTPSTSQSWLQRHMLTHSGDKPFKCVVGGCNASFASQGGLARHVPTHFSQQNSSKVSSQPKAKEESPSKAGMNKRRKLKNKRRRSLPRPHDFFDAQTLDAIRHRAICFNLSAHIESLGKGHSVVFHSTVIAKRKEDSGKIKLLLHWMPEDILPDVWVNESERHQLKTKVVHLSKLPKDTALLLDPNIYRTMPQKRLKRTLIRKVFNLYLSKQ
Chain of purified human, His-tagged PRC2 complex (Q09028 whole entry partner): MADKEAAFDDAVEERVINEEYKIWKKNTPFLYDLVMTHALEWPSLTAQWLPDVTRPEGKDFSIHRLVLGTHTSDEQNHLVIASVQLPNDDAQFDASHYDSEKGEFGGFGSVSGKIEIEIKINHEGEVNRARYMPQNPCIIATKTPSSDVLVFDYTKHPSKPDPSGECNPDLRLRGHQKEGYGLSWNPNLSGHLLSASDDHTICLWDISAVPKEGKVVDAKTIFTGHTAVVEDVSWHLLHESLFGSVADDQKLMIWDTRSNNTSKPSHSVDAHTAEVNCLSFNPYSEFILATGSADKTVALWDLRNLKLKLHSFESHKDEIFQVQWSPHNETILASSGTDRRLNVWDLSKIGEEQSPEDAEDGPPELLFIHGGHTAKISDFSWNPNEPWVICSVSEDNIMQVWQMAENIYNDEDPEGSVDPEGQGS
For orientation: IC50 means the point on the concentration scale where inhibition reaches its midpoint. A lower IC50 goes with inhibition by little substance. With `CNCc1cc(-c2cnc(NCc3c(F)ccc4c3CCO4)n3cc(C#N)nc23)n(C)n1` [Example 211, 5-(((5-fluoro-2,3-dihydrobenzofuran-4-yl)methyl)amino)-8-(1-methyl-3-((methylamino)methyl)-1H-pyrazol-5-yl)imidazo[1,2-c]pyrimidine-2-carbonitrile], the 50% inhibitory concentration (IC50) was < 100 nM.

In the case of `Cn1nc(C#N)cc1-c1cnc(NCc2c(F)ccc3c2CCO3)n2cc(C#N)nc12` [Example 212, 8-(3-cyano-1-methyl-1H-pyrazol-5-yl)-5-(((5-fluoro-2,3-dihydrobenzofuran-4-yl)methyl)amino)imidazo[1,2-c]pyrimidine-2-carbonitrile], the IC50 is < 100 nM.

As for `N#Cc1cn2c(NCc3c(F)ccc4c3CCO4)ncc(-c3ccc(C(=O)O)nc3)c2n1` [Example 215, 5-(2-cyano-5-(((5-fluoro-2,3-dihydrobenzofuran-4-yl)methyl)amino)imidazo[1,2-c]pyrimidin-8-yl)picolinic Acid], the IC50 is < 100 nM.

`CN(C)Cc1ncc(-c2cnc(NCc3c(F)ccc4c3CCO4)n3cc(C#N)nc23)cn1` [Example 216, 8-(2-((dimethylamino)methyl)pyrimidin-5-yl)-5-(((5-fluoro-2,3-dihydrobenzofuran-4-yl)methyl)amino)imidazo[1,2-c]pyrimidine-2-carbonitrile]: the concentration for half-maximal inhibition (IC50) is < 100 nM.

With `CN(C)CCc1cccc(-c2cnc(NCc3c(F)ccc4c3CCO4)n3cc(C#N)nc23)c1` [Example 217, 8-(3-(2-(dimethylamino)ethyl)phenyl)-5-(((5-fluoro-2,3-dihydrobenzofuran-4-yl)methyl)amino)imidazo[1,2-c]pyrimidine-2-carbonitrile], the IC50 was < 100 nM.

Consider `N#Cc1cn2c(NCc3c(F)ccc4c3CCO4)ncc(-c3cc[nH]c(=O)c3)c2n1` [Example 218, 5-(((5-fluoro-2,3-dihydrobenzofuran-4-yl)methyl)amino)-8-(2-oxo-1,2-dihydropyridin-4-yl)imidazo[1,2-c]pyrimidine-2-carbonitrile], for which the IC50 was < 100 nM.

For the compound `N#Cc1cn2c(NCc3c(F)ccc4c3CCO4)ncc(-c3ccc([C@@H]4CCCN4)cc3)c2n1` [Example 219, (S)-5-(((5-fluoro-2,3-dihydrobenzofuran-4-yl)methyl)amino)-8-(4-(pyrrolidin-2-yl)phenyl)imidazo[1,2-c]pyrimidine-2-carbonitrile], the IC50 is < 100 nM.

For the compound `N#Cc1cn2c(NCc3c(F)ccc4c3CCO4)ncc(-c3ccc([C@H]4CCCN4)cc3)c2n1` [Example 220, (R)-5-(((5-fluoro-2,3-dihydrobenzofuran-4-yl)methyl)amino)-8-(4-(pyrrolidin-2-yl)phenyl)imidazo[1,2-c]pyrimidine-2-carbonitrile], the IC50 lay within 100 to 500 nM.

For `CN1CCC1c1ccc(-c2cnc(NCc3c(F)ccc4c3CCO4)n3cc(C#N)nc23)cc1` (centres unmarked) [Example 221, 5-(((5-fluoro-2,3-dihydrobenzofuran-4-yl)methyl)amino)-8-(4-(1-methylazetidin-2-yl)phenyl)imidazo[1,2-c]pyrimidine-2-carbonitrile], the concentration for half-maximal inhibition (IC50) is < 100 nM.

As to `N#Cc1cn2c(NCc3c(F)ccc4c3CCO4)ncc(-c3ccc(C4CC(=O)N4)cc3)c2n1` (centres unmarked) [Example 222, 5-(((5-fluoro-2,3-dihydrobenzofuran-4-yl)methyl)amino)-8-(4-(4-oxoazetidin-2-yl)phenyl)imidazo[1,2-c]pyrimidine-2-carbonitrile], the IC50 was < 100 nM.

Take `[2H]C1Oc2ccc(F)c(C([2H])([2H])Nc3ncc(-c4ccc(CN(C)C)cc4C)c4nc(C#N)cn34)c2C1[2H]` (centres unmarked) [Example 223, 8-(4-((dimethylamino)methyl)-2-methylphenyl)-5-(((5-fluoro-2,3-dihydrobenzofuran-4-yl-2,3-d2)methyl-d2)amino)imidazo[1,2-c]pyrimidine-2-carbonitrile]: the IC50 was < 100 nM.

As for `Cn1cc(-c2cnc(NCc3c(F)ccc4c3CCO4)n3cc(C#N)nc23)c(C#N)n1` [Example 224, 8-(3-cyano-1-methyl-1H-pyrazol-4-yl)-5-(((5-fluoro-2,3-dihydrobenzofuran-4-yl)methyl)amino)imidazo[1,2-c]pyrimidine-2-carbonitrile], the IC50 lay within 100 to 500 nM.

Take `N#Cc1cn2c(NCc3c(F)ccc4c3CCO4)ncc(-c3ccc(C4COCCN4)cc3)c2n1` (centres unmarked) [Example 225, 5-(((5-fluoro-2,3-dihydrobenzofuran-4-yl)methyl)amino)-8-(4-(morpholin-3-yl)phenyl)imidazo[1,2-c]pyrimidine-2-carbonitrile]: the IC50 was < 100 nM.

For the compound `N#Cc1cn2c(NCc3c(F)ccc4c3CCO4)ncc(-c3ccc(C4CCN4)cc3)c2n1` (centres unmarked) [Example 226, 8-(4-(azetidin-2-yl)phenyl)-5-(((5-fluoro-2,3-dihydrobenzofuran-4-yl)methyl)amino)imidazo[1,2-c]pyrimidine-2-carbonitrile], the half-maximal inhibitory concentration (IC50) was in the range of 100 to 500 nM.

Take `CN1CCOCC1c1ccc(-c2cnc(NCc3c(F)ccc4c3CCO4)n3cc(C#N)nc23)cc1` (centres unmarked) [Example 227, 5-(((5-fluoro-2,3-dihydrobenzofuran-4-yl)methyl)amino)-8-(4-(4-methylmorpholin-3-yl)phenyl)imidazo[1,2-c]pyrimidine-2-carbonitrile]: the IC50 is < 100 nM.

Take `CN1CCN(C(=O)c2cc(-c3cnc(NCc4c(F)ccc5c4CCO5)n4cc(C#N)nc34)n(C)n2)CC1` [Example 229, 5-(((5-fluoro-2,3-dihydrobenzofuran-4-yl)methyl)amino)-8-(1-methyl-3-(4-methylpiperazine-1-carbonyl)-1H-pyrazol-5-yl)imidazo[1,2-c]pyrimidine-2-carbonitrile]: the IC50 is < 100 nM.

`CN(C)CCn1nccc1-c1cnc(NCc2c(F)ccc3c2CCO3)n2cc(C#N)nc12` [Example 230, 8-(1-(2-(dimethylamino)ethyl)-1H-pyrazol-5-yl)-5-(((5-fluoro-2,3-dihydrobenzofuran-4-yl)methyl)amino)imidazo[1,2-c]pyrimidine-2-carbonitrile]: the IC50 is < 100 nM.

In the case of `N#Cc1cn2c(NCc3c(F)ccc4c3CCO4)ncc(-c3ccnn3CCO)c2n1` [Example 231, 5-(((5-fluoro-2,3-dihydrobenzofuran-4-yl)methyl)amino)-8-(1-(2-hydroxyethyl)-1H-pyrazol-5-yl)imidazo[1,2-c]pyrimidine-2-carbonitrile], the IC50 lay in the range of 100 to 500 nM.

As to `N#Cc1cn2c(NCc3c(F)ccc4c3CCO4)ncc(-c3n[nH]cc3Br)c2n1` [Example 232, 8-(4-bromo-1H-pyrazol-3-yl)-5-(((5-fluoro-2,3-dihydrobenzofuran-4-yl)methyl)amino)imidazo[1,2c]pyrimidine-2-carbonitrile], the IC50 lay within 100 to 500 nM.

Turning to `Cc1c(-c2cnc(NCc3c(F)ccc4c3CCO4)n3cc(C#N)nc23)cnc(CN(C)C)c1F` [Example 233, 8-(6-((dimethylamino)methyl)-5-fluoro-4-methylpyridin-3-yl)-5-(((5-fluoro-2,3-dihydrobenzofuran-4-yl)methyl)amino)imidazo[1,2-c]pyrimidine-2-carbonitrile], the IC50 was < 100 nM.

For the origin of these results see US20240398811A1, “PRC2 INHIBITORS FOR USE IN TREATING BLOOD DISORDERS” (ORIC Pharmaceuticals, Inc., priority 2021, published 2024).
